Measurements taken from patent US10117430B2, “Malononitrile compounds for controlling animal pests” (BASF SE, priority 2012, dated 2018).

Columns and labels:
Format in all cases: in vivo
[1] = system: Orchid Thrips (Dichromothrips corbetti); test: B.4 Orchid thrips floral-immersion test; conditions: 96 h, in comparison with untreated controls, after 4 days
In short: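 Orchid flowers dipped in 300 ppm compound (acetone:water 1:1, 0.01% surfactant), dried, then caged with 10-15 adult D. corbetti from a lab colony. Held under continuous light at about 28° C. Live thrips counted after 4 days; mortality extrapolated from pre-treatment numbers.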

[2] = system: Rice brown plant hopper (Nilaparvata lugens); test: B.11 Rice brown plant hopper test on sprayed rice seedlings; conditions: in comparison with untreated controls, after 72 hours
In short: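 Compounds formulated in 50:50 acetone:water with 0.1% vol/vol surfactant and sprayed onto potted rice seedlings. Air-dried plants were caged, infested with 10 adults and held at about 28-29 °C, 50-60% RH. Percent mortality scored after 72 hours.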

[3] = system: Boll Weevil (Anthonomus grandis); test: B.9 Boll weevil microtiter diet test, egg and larval mortality; conditions: 120 h, in comparison with untreated controls, egg and larval mortality after 5 days
In short: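 Insect diet carrying 20-30 A. grandis eggs per well was sprayed with compounds formulated in 75% water/25% DMSO, at various concentrations with two replicates. Plates were held at about 23±1° C and 50±5% RH for 5 days. Egg and larval mortality were then scored visually.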

[4] = system: Yellow Fever Mosquito (Aedes aegypti); test: whole plant or invertebrate; conditions: 48 h, in comparison with untreated controls, larval mortality after 2 days
In short: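 Freshly hatched larvae (5-15 per well) in 200 μl tap water; compounds formulated in 75% water/25% DMSO and sprayed at 2.5 μl per well at several concentrations, two replicates. Incubated 2 days at 28±1° C., 80±5% RH; larval mortality scored visually.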

[5] = system: Vetch Aphid (Megoura viciae); test: B.7 Vetch aphid test on broad bean leaf disks; conditions: foliar, 120 h, in comparison with untreated controls, 5 days
In short: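 Broad bean leaf disks sprayed with compounds in 25% DMSO/75% water at several concentrations, two replicates, then air-dried. Infested with 5-8 adult Megoura viciae and held 5 days at about 23±1 °C and 50±5% RH. Mortality and fecundity scored visually.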

[6] = system: Green Peach Aphid (Myzus persicae); test: B.3 Green peach aphid systemic test, artificial diet under membrane; conditions: 72 h, concentration of the test solution 2500 mg/L, 3 days
In short: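 Systemic uptake from artificial liquid diet beneath a membrane, compound formulated in 75% water/25% DMSO and added to diet at several concentrations, two replicates. 5-8 adult aphids fed on treated diet for 3 days at about 23±1° C. and 50±5% RH. Mortality and fecundity scored visually.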

[7] = system: Mediterranean Fruitfly (Ceratitis capitata); test: B.2 Mediterranean fruitfly microtiter diet test, egg and larval mortality; conditions: 120 h, in comparison with untreated controls, egg and larval mortality after 5 days
In short: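 Microtiter plates held insect diet with 50-80 C. capitata eggs; compounds in 75% water/25% DMSO were sprayed onto the diet at various concentrations, two replicates. Plates kept about 5 days at 28±1 °C and 80±5% RH, then egg and larval mortality scored visually.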

[8] = system: Southern Armyworm (Spodoptera eridania); test: B.6 Southern armyworm test on sprayed lima bean plants; conditions: 96 h, 500 ppm, in comparison with untreated controls, 4 days after treatment
In short: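 Lima bean plants at the 1st true leaf stage were sprayed with cyclohexanone-based solutions diluted in 50% acetone/water with 0.01% nonionic surfactant. Once dry, plants were bagged with 10–11 larvae and held at 25 °C and 20–40% RH. Mortality and reduced feeding were scored at 4 days against untreated plants.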

N#CC(C#N)(Cc1ccc(C(F)(F)F)nc1)c1cc(F)cc(F)c1 [II-34]
≥ 75%: mortality at 500 ppm [1] | mortality at 300 ppm [2] | mortality at 2500 ppm [3] | mortality at 2500 ppm [4] | mortality at 2500 ppm [5] | mortality at 2500 µg/mL [6] | mortality at 2500 ppm [7] | mortality at 500 ppm [8]
